SMILES strings stand for the structures.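 Test compounds were applied to cells in 96-well plates for 48 hours at 5 doses. TGI is the concentration that stops growth completely.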

The test system of this test is P388/ADR leukemia. Kind of test: NCI tumour cell line growth inhibition, 48 h.

For the compound `COc1cc(C2c3cc4c(cc3[C@@H](Nc3ccc(C#N)cc3)C3COC(=O)[C@H]23)OCO4)cc(OC)c1O` (some centres not stated), the TGI worked out at 2110 nM. With `CNC(=O)OCc1nc(SC2CCCCO2)n(C)c1COC(=O)NC` (configuration not stated) the figure was more than 100000 nM.

The values are drawn from PubChem BioAssay (NCI).
